Test results reported in patent US7695930B2, “Method for the detection, identification and/or quantification of microoganisms with peptidase activity using phenoxazinone derivatives as enzyme substrates” (Biomerieux, priority 2003, dated 2010).

How the values were obtained:
Assay type in all cases: cell-based
Details in all cases: 50 mg/l
Enterococcus faecalis = assay: Leucine-peptidase detection on agar medium (Example 11)
Experimental: (§1) The detection medium was prepared by mixing 1.4 g of biogelytone (bioMérieux), 0.84 g of meat extract (bioMérieux), 2.24 g of NaCl (Merck), 280 μl of a solution of IPTG (isopropylthio-β-D-galactopyranoside, BIOSYNTH) in water (concentration 10 g/l) and 4.2 g of European agar (bioMérieux).
(§2) The substrate of the invention obtained in Example 2, in which the amino acid is leucine (leucine-9-aminobenzo[a]phenoxazin-5-one or Leu-ABP), or else a substrate of the prior art, which is leucine-aminomethylcoumarin (Leu-AMC, BACHEM), was then added in the following way: 280 ml of osmosed water were added to the medium, and the mixture was melted in a waterbath at 100° C. The mixture was autoclaved for 15 min at 121° C. and cooled to 50° C. in a waterbath.
(§3) The medium was then poured into Petri dishes.
(§4) The coloration of these colonies, the diffusion, and also the intensity of this coloration were noted.
(§5) The results were expressed as intensity of coloration using an arbitrary scale ranging from 0 to 4 as a basis and also as diffusion also using an arbitrary scale ranging from 0 to 4 as a basis.

Pseudomonas aeruginosa = assay: as above
Experimental: as §1, §2, §3, §4, §5

Escherichia coli = assay: as above
Experimental: as §1, §2, §3, §4, §5

Citrobacter freundii = assay: as above
Experimental: as §1, §2, §3, §4, §5

Klebsellia pneumoniae = assay: as above
Experimental: as §1, §2, §3, §4, §5

Candida albicans = assay: as above
Experimental: as §1, §2, §3, §4, §5

Enterobacter cloaccae = assay: as above
Experimental: as §1, §2, §3, §4, §5

Serratia marcescens = assay: as above
Experimental: as §1, §2, §3, §4, §5

Staphylococcus aureus = assay: as above
Experimental: as §1, §2, §3, §4, §5

[1] = system: Listeria monocytogenes (NCTC 11994); assay: Alanine peptidase detection, substrates with one to three amino acids (Example 15); set-up: key to color of the colony: R=pink; RP=pale pink; I=colorless
Experimental: (§6) 1000 ml of Columbia medium was melted in a waterbath at 100° C. and autoclaved at 121° C. for 15 min. It was then cooled to 50° C. in a waterbath.
(§7) This medium was separated into 5 flasks of 200 ml, and then, added at 50° C., as substrates, was that of Example 2 for which A is: • medium 1: L-alanine (L-alanine-9-aminobenzo[a]phenoxazin-5-one or A-ABP), • medium 2: L-alanine-L-alanine (L-alanine-L-alanine-9-aminobenzo-[a]phenoxazin-5-one or AA-ABP), • medium 3: L-alanine-L-alanine-L-alanine (L-alanine-L-alanine-L-alanine-9-aminobenzo[a]phenoxazin-5-one or AAA-ABP), • medium 4: L-alanine-glycine (L-alanine-glycine-9-aminobenzo[a]phenoxazin-5-one or AG-ABP), and • medium 5: glycine-L-alanine (glycine-L-alanine-9-aminobenzo[a]phenoxazin-5-one or GA-ABP), each substrate being solubilized in DMSO and used at a final concentration of 50 mg/l.
as §3
(§8) Nine microorganism strains derived from the Applicant's collection, suspended in physiological saline, were seeded in colonies on the media prepared in point 15.1 above according to a multipoint inoculation in a proportion of 15 000 cfu/spot. The dishes were incubated at 37° C. for 48 hours. The colonies formed were examined visually after incubation for 24 and 48 hours.
(§9) The results are expressed in Tables 7 and 8 hereinafter according to the rules and the nomenclature stated in paragraph 11.3 and where R=pink, RP=pale pink and I=colorless.

[2] = system: Enterobacter clocae (NCTC 11936); assay: as above; set-up: key to color of the colony: R=pink; RP=pale pink; I=colorless
Experimental: as §6, §7, §3, §8, §9

[3] = system: Staphylococcus aureus (NCTC 6571); assay: as above; set-up: key to color of the colony: R=pink; RP=pale pink; I=colorless
Experimental: as §6, §7, §3, §8, §9

[4] = system: Micrococcus luteus (NCTC611); assay: as above; set-up: key to color of the colony: R=pink; RP=pale pink; I=colorless
Experimental: as §6, §7, §3, §8, §9

[5] = system: Escherichia coli (NCTC 10418); assay: as above; set-up: key to color of the colony: R=pink; RP=pale pink; I=colorless
Experimental: as §6, §7, §3, §8, §9

[6] = system: Staphylococcus epidermis (NCTC 11047); assay: as above; set-up: key to color of the colony: R=pink; RP=pale pink; I=colorless
Experimental: as §6, §7, §3, §8, §9

[7] = system: Pseudomonas aerigunosa (NCTC 10038); assay: as above; set-up: key to color of the colony: R=pink; RP=pale pink; I=colorless
Experimental: as §6, §7, §3, §8, §9

[8] = system: Acinetobacter baumannii (ATCC 19606); assay: as above; set-up: key to color of the colony: R=pink; RP=pale pink; I=colorless
Experimental: as §6, §7, §3, §8, §9

## Cc1cc(=O)oc2cc(NC(=O)[C@@H](N)CC(C)C)ccc12 [Leu-AMC, leucine-aminomethylcoumarin, reference compound]
Enterococcus faecalis; 24 h
  growth diameter: 0.4 mm
  intensity of coloration, scale 0 to 4: 0.5
Enterococcus faecalis; 48 h
  growth diameter: 0.4 mm
  intensity of coloration, scale 0 to 4: 1.5
Pseudomonas aeruginosa; 24 h
  growth diameter: 2 mm
  intensity of coloration, scale 0 to 4: 1
Pseudomonas aeruginosa; 48 h
  growth diameter: 2 mm
  intensity of coloration, scale 0 to 4: 3
Escherichia coli; 24 h
  growth diameter: 1.8 mm
  intensity of coloration, scale 0 to 4: 3
Escherichia coli; 48 h
  growth diameter: 1.8 mm
  intensity of coloration, scale 0 to 4: 3
Citrobacter freundii; 24 h
  growth diameter: 0.8 mm
  intensity of coloration, scale 0 to 4: 3
Citrobacter freundii; 48 h
  growth diameter: 1 mm
  intensity of coloration, scale 0 to 4: 3
Klebsellia pneumoniae; 24 h
  growth diameter: 1.8 mm
  intensity of coloration, scale 0 to 4: 3
Klebsellia pneumoniae; 48 h
  growth diameter: 1.8 mm
  intensity of coloration, scale 0 to 4: 3
Candida albicans; 24 h
  growth diameter: 0.4 mm
  intensity of coloration, scale 0 to 4: 0.25
Candida albicans; 48 h
  growth diameter: 0.5 mm
  intensity of coloration, scale 0 to 4: 1.5
Enterobacter cloaccae; 24 h
  growth diameter: 0.8 mm
  intensity of coloration, scale 0 to 4: 3
Enterobacter cloaccae; 48 h
  growth diameter: 0.8 mm
  intensity of coloration, scale 0 to 4: 3
Serratia marcescens; 24 h
  growth diameter: 0.5 mm
  intensity of coloration, scale 0 to 4: 2
Serratia marcescens; 48 h
  growth diameter: 0.7 mm
  intensity of coloration, scale 0 to 4: 3
Staphylococcus aureus; 24 h
  growth diameter: 1.7 mm
  intensity of coloration, scale 0 to 4: 2.5
Staphylococcus aureus; 48 h
  growth diameter: 1.7 mm
  intensity of coloration, scale 0 to 4: 3

## L-alanine-L-alanine-9-aminobenzo-[a]phenoxazin-5-one [AA-ABP]
[1]; 24 h
  color of the colony: R
  growth diameter: 2 mm
[1]; 48 h
  color of the colony: R
  growth diameter: 2 mm
[2]; 24 h
  color of the colony: R
  growth diameter: 3 mm
[2]; 48 h
  color of the colony: R
  growth diameter: 3 mm
[3]; 24 h
  color of the colony: I
  growth diameter: 3 mm
[3]; 48 h
  color of the colony: I
  growth diameter: 2 mm
[4]; 24 h
  growth diameter: 0 mm
[4]; 48 h
  growth diameter: 0 mm
[5]; 24 h
  color of the colony: R
  growth diameter: 3 mm
[5]; 48 h
  color of the colony: R
  growth diameter: 3 mm
[6]; 24 h
  color of the colony: I
  growth diameter: 2 mm
[6]; 48 h
  color of the colony: I
  growth diameter: 2 mm
[7]; 24 h
  color of the colony: R
  growth diameter: 3 mm
[7]; 48 h
  color of the colony: R
  growth diameter: 3 mm
[8]; 24 h
  color of the colony: R
  growth diameter: 3 mm
[8]; 48 h
  color of the colony: R
  growth diameter: 3 mm

## L-alanine-L-alanine-L-alanine-9-aminobenzo[a]phenoxazin-5-one [AAA-ABP]
[1]; 24 h
  color of the colony: R
  growth diameter: 2 mm
[1]; 48 h
  color of the colony: R
  growth diameter: 2 mm
[2]; 24 h
  color of the colony: R
  growth diameter: 3 mm
[2]; 48 h
  color of the colony: R
  growth diameter: 3 mm
[3]; 24 h
  color of the colony: I
  growth diameter: 3 mm
[3]; 48 h
  color of the colony: I
  growth diameter: 3 mm
[4]; 24 h
  color of the colony: R
  growth diameter: 1 mm
[4]; 48 h
  color of the colony: R
  growth diameter: 3 mm
[5]; 24 h
  color of the colony: R
  growth diameter: 3 mm
[5]; 48 h
  color of the colony: R
  growth diameter: 3 mm
[6]; 24 h
  color of the colony: I
  growth diameter: 2 mm
[6]; 48 h
  color of the colony: I
  growth diameter: 2 mm
[7]; 24 h
  color of the colony: R
  growth diameter: 3 mm
[7]; 48 h
  color of the colony: R
  growth diameter: 3 mm
[8]; 24 h
  color of the colony: R
  growth diameter: 3 mm
[8]; 48 h
  color of the colony: R
  growth diameter: 3 mm

## L-alanine-glycine-9-aminobenzo[a]phenoxazin-5-one [AG-ABP]
[1]; 24 h
  color of the colony: I
  growth diameter: 2 mm
[1]; 48 h
  color of the colony: I
  growth diameter: 3 mm
[2]; 24 h
  color of the colony: R
  growth diameter: 3 mm
[2]; 48 h
  color of the colony: R
  growth diameter: 3 mm
[3]; 24 h
  color of the colony: I
  growth diameter: 3 mm
[3]; 48 h
  color of the colony: I
  growth diameter: 3 mm
[4]; 24 h
  color of the colony: I
  growth diameter: 1 mm
[4]; 48 h
  color of the colony: R
  growth diameter: 3 mm
[5]; 24 h
  color of the colony: R
  growth diameter: 3 mm
[5]; 48 h
  color of the colony: R
  growth diameter: 3 mm
[6]; 24 h
  color of the colony: I
  growth diameter: 3 mm
[6]; 48 h
  color of the colony: I
  growth diameter: 3 mm
[7]; 24 h
  color of the colony: RP
  growth diameter: 3 mm
[7]; 48 h
  color of the colony: R
  growth diameter: 3 mm
[8]; 24 h
  color of the colony: RP
  growth diameter: 3 mm
[8]; 48 h
  color of the colony: R
  growth diameter: 3 mm

## glycine-L-alanine-9-aminobenzo[a]phenoxazin-5-one [GA-ABP]
[1]; 24 h
  color of the colony: I
  growth diameter: 2 mm
[1]; 48 h
  color of the colony: R
  growth diameter: 2 mm
[2]; 24 h
  color of the colony: R
  growth diameter: 3 mm
[2]; 48 h
  color of the colony: R
  growth diameter: 3 mm
[3]; 24 h
  color of the colony: I
  growth diameter: 3 mm
[3]; 48 h
  color of the colony: I
  growth diameter: 3 mm
[4]; 24 h
  growth diameter: 0 mm
[4]; 48 h
  growth diameter: 0 mm
[5]; 24 h
  color of the colony: R
  growth diameter: 3 mm
[5]; 48 h
  color of the colony: R
  growth diameter: 3 mm
[6]; 24 h
  color of the colony: I
  growth diameter: 1 mm
[6]; 48 h
  color of the colony: I
  growth diameter: 2 mm
[7]; 24 h
  color of the colony: RP
  growth diameter: 3 mm
[7]; 48 h
  color of the colony: R
  growth diameter: 3 mm
[8]; 24 h
  color of the colony: R
  growth diameter: 3 mm
[8]; 48 h
  color of the colony: R
  growth diameter: 3 mm
